The text below walks through data of PubChem BioAssay AID330 (DTP/NCI, 2004).

This assay deals with P388 leukemia ip, CD2F1 mice, survival T/C. Put plainly: NCI In Vivo Anticancer Drug Screen. Data for tumor model P388 Leukemia (intraperitoneal) in CD2F1 (CDF1) mice. The conditions noted are these: endpoint: median survival time, higher = longer survival. The essentials: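 Mice carrying the transplanted tumor received test compound or vehicle. Survival was recorded in each group, and the value is the treated-group measurement divided by that of the vehicle-treated control group.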

Where [1] appears, read: dose: 50.0 mg/kg/injection, schedule: Q01DX009 (ip), vehicle: saline.
The mark [2] stands for this setting: dose: 100.0 mg/kg/injection, schedule: Q01DX009 (ip), vehicle: saline.
The mark [3] stands for this setting: dose: 50.0 mg/kg/injection, schedule: Q01DX005 (ip), vehicle: saline.
Where [4] appears, read: dose: 100.0 mg/kg/injection, schedule: Q01DX005 (ip), vehicle: saline.
The mark [5] stands for this setting: dose: 200.0 mg/kg/injection, schedule: Q01DX005 (ip), vehicle: saline.
[6] abbreviates: dose: 100.0 mg/kg/injection, schedule: Q01DX001 (ip), vehicle: Klucel (hydroxypropylcellulose) (HPC).
[7] abbreviates: dose: 200.0 mg/kg/injection, schedule: Q01DX001 (ip), vehicle: Klucel (hydroxypropylcellulose) (HPC).
[8] abbreviates: dose: 400.0 mg/kg/injection, schedule: Q01DX001 (ip), vehicle: Klucel (hydroxypropylcellulose) (HPC).
[9] abbreviates: dose: 50.0 mg/kg/injection, schedule: Q01DX005 (ip), vehicle: saline with Tween-80.
[10] abbreviates: dose: 100.0 mg/kg/injection, schedule: Q01DX005 (ip), vehicle: saline with Tween-80.
Setting [11] is: dose: 200.0 mg/kg/injection, schedule: Q01DX005 (ip), vehicle: saline with Tween-80.
Setting [12] is: dose: 50.0 mg/kg/injection, schedule: Q01DX009 (ip), vehicle: Klucel (hydroxypropylcellulose) (HPC).
The mark [13] stands for this setting: dose: 100.0 mg/kg/injection, schedule: Q01DX009 (ip), vehicle: Klucel (hydroxypropylcellulose) (HPC).
The mark [14] stands for this setting: dose: 200.0 mg/kg/injection, schedule: Q01DX009 (ip), vehicle: Klucel (hydroxypropylcellulose) (HPC).
[15] abbreviates: dose: 100.0 mg/kg/injection, schedule: Q01DX009 (ip), vehicle: saline with Tween-80.
Where [16] appears, read: dose: 25.0 mg/kg/injection, schedule: Q01DX009 (ip), vehicle: Klucel (hydroxypropylcellulose) (HPC).
Where [17] appears, read: dose: 50.0 mg/kg/injection, schedule: Q01DX009 (ip), vehicle: saline with Tween-80.

The structures appear in SMILES notation. “And” between values parts separate entries of the source, which are not always exact repeats. Equal entries are not always repeated. Inconclusive results and toxic doses are left out.

Consider `CC1CCN(P(=O)(N(C)C)N(C)C)CC1`, for which the T/C runs as follows: under setting [1], 98 % of control; under setting [2], 96 % of control; (dose: 200.0 mg/kg/injection, schedule: Q01DX009 (ip), vehicle: saline) 88 % of control.
Take `CC([NH-])CC(C)[NH-].[I][Pt+2][I]` (configuration not stated): the T/C by setting is: (dose: 12.5 mg/kg/injection, schedule: Q04DX002 (ip), vehicle: saline with Tween-80) 169 % of control and 150 % of control; (dose: 25.0 mg/kg/injection, schedule: Q04DX002 (ip), vehicle: saline with Tween-80) 163 % of control and 157 % of control.
With `COc1ccc(C(C)c2cc(C(C)(C)C)c(O)c(C(C)(C)C)c2)cc1` (configuration not stated), the T/C runs as follows: (dose: 50.0 mg/kg/injection, schedule: Q01DX005 (ip), vehicle: distilled water + alcohol) 103 % of control; (dose: 100.0 mg/kg/injection, schedule: Q01DX005 (ip), vehicle: distilled water + alcohol) 100 % of control; (dose: 200.0 mg/kg/injection, schedule: Q01DX005 (ip), vehicle: distilled water + alcohol) 105 % of control.
For the compound `NC(CCl)=NCc1ccccc1`, the T/C (dose: 7.5 mg/kg/injection, schedule: Q01DX005 (ip), vehicle: saline) was 99 % of control; the T/C (dose: 15.0 mg/kg/injection, schedule: Q01DX005 (ip), vehicle: saline) was 96 % of control; the T/C (dose: 30.0 mg/kg/injection, schedule: Q01DX005 (ip), vehicle: saline) is 111 % of control.
Turning to `Cn1ccc(N)nc1=O`, the T/C reads like this: under setting [3], 101 % of control; under setting [4], 107 % of control; under setting [5], 104 % of control.
`CN1CCC(/C=C/c2cccc3ccccc23)CN1` (configuration not stated) (tested in a mixture with another compound): the T/C runs as follows: under setting [1], 108 % of control; under setting [2], 99 % of control.
In the case of `CC(C)(C)c1ccc2c(c1)C1=NC2=NC2=NC(=NC3=NC(=NC4=NC(=N1)c1ccc(C(C)(C)C)cc14)c1ccc(C(C)(C)C)cc13)c1ccc(C(C)(C)C)cc12`, the T/C by setting is: under setting [6], 98 % of control; under setting [7], 95 % of control; under setting [8], 91 % of control.
As for `CC1(C)CC(O)C2OC2C1` (configuration not stated), the T/C was 101 % of control under setting [9], 108 % of control under setting [10] and 106 % of control under setting [11].
Turning to `c1ccc(-c2cn3ccccc3n2)cc1`, the T/C runs as follows: under setting [12], 98 % of control; under setting [13], 108 % of control; under setting [14], 117 % of control.
Turning to `COc1cc2ccc(CC(N)=O)cc2cc1OC`, the T/C under setting [15] was 118 % of control and the T/C (dose: 200.0 mg/kg/injection, schedule: Q01DX009 (ip), vehicle: saline with Tween-80) is 109 % of control.
In the case of `O=C1c2cc([N+](=O)[O-])cc3cc([N+](=O)[O-])cc(c23)C(=O)N1CCCNCCNCCCN1C(=O)c2cc([N+](=O)[O-])cc3cc([N+](=O)[O-])cc(c23)C1=O`, the T/C runs as follows: under setting [9], 100 % of control; under setting [10], 100 % of control; under setting [11], 100 % of control.
Consider `CCN(CC)c1ccc(C(NCC2CCCCO2)C(Cl)(Cl)Cl)cc1` (configuration not stated), for which the T/C is 117 % of control under setting [3], 102 % of control under setting [4] and 100 % of control under setting [5].
With `CCC(=O)Cc1nc2n(c1O)/C(=N/C(=O)Nc1ccc(Cl)cc1)N=N2`, the T/C (dose: 60.0 mg/kg/injection, schedule: Q01DX005 (ip), vehicle: saline with Tween-80) was 100 % of control; the T/C (dose: 120.0 mg/kg/injection, schedule: Q01DX005 (ip), vehicle: saline with Tween-80) was 98 % of control; the T/C (dose: 240.0 mg/kg/injection, schedule: Q01DX005 (ip), vehicle: saline with Tween-80) is 98 % of control.
As to `CCOC(=O)c1c[nH]c2c(OC)ccc(OC)c2c1=O`, the T/C runs as follows: under setting [9], 99 % of control; under setting [10], 100 % of control; under setting [11], 100 % of control.
Consider `CCN(CC)C(=O)CC(c1ccccc1)N(C)C` (configuration not stated), for which the T/C is 98 % of control (dose: 60.0 mg/kg/injection, schedule: Q01DX005 (ip), vehicle: saline) and 87 % of control (dose: 120.0 mg/kg/injection, schedule: Q01DX005 (ip), vehicle: saline).
For the compound `O=C1c2ccccc2C(=O)N1c1ccc(Cl)cc1[N+](=O)[O-]`, the T/C runs as follows: (dose: 100.0 mg/kg/injection, schedule: Q04DX002 (ip), vehicle: saline) 99 % of control; (dose: 200.0 mg/kg/injection, schedule: Q04DX002 (ip), vehicle: saline) 99 % of control; (dose: 400.0 mg/kg/injection, schedule: Q04DX002 (ip), vehicle: saline) 97 % of control.
For `Cc1nn(C(=S)S)c(C)c1N=Nc1ccccc1[N+](=O)[O-]`, the T/C is 103 % of control (dose: 100.0 mg/kg/injection, schedule: Q04DX002 (ip), vehicle: Klucel (hydroxypropylcellulose) (HPC)); 94 % of control (dose: 200.0 mg/kg/injection, schedule: Q04DX002 (ip), vehicle: Klucel (hydroxypropylcellulose) (HPC)); 107 % of control (dose: 400.0 mg/kg/injection, schedule: Q04DX002 (ip), vehicle: Klucel (hydroxypropylcellulose) (HPC)).
Turning to `Cn1c(Br)c(/C=N/NC(N)=S)c2ccccc21`, the T/C under setting [6] was 108 % of control, the T/C under setting [7] was 100 % of control and the T/C under setting [8] was 102 % of control.
As to `CS/C(=C/c1ccc2ccccc2[n+]1C)N1CCN(C)CC1`, the T/C by setting is: (dose: 6.25 mg/kg/injection, schedule: Q01DX005 (ip), vehicle: saline) 99 % of control; (dose: 12.5 mg/kg/injection, schedule: Q01DX005 (ip), vehicle: saline) 98 % of control; (dose: 25.0 mg/kg/injection, schedule: Q01DX005 (ip), vehicle: saline) 102 % of control.
With `Brc1ccc(CC[P+](c2ccccc2)(c2ccccc2)c2ccccc2)cc1`, the T/C reads like this: (dose: 25.0 mg/kg/injection, schedule: Q04DX003 (ip), vehicle: Klucel (hydroxypropylcellulose) (HPC)) 109 % of control; (dose: 50.0 mg/kg/injection, schedule: Q04DX003 (ip), vehicle: Klucel (hydroxypropylcellulose) (HPC)) 101 % of control; (dose: 100.0 mg/kg/injection, schedule: Q04DX003 (ip), vehicle: Klucel (hydroxypropylcellulose) (HPC)) 100 % of control and 105 % of control.
Regarding `CNNCCCCC(=O)NC(C)C`, the T/C is 97 % of control under setting [16], 98 % of control under setting [12] and 97 % of control under setting [13].
Take `O=C1Oc2ccc3ccccc3c2CC1C(=O)c1ccc(Cl)cc1` (configuration not stated): the T/C by setting is: under setting [17], 88 % of control; under setting [15], 88 % of control.
In the case of `CN(C)c1ccc(/C=C/c2nc3ccccc3s2)cc1`, the T/C was 108 % of control under setting [16], 99 % of control under setting [12], 99 % of control under setting [13] and 98 % of control under setting [14].
Regarding `O=c1c2ccccc2nnn1Cc1ccco1`, the T/C by setting is: (dose: 1.25 mg/kg/injection, schedule: Q01DX005 (ip), vehicle: saline with Tween-80) 100 % of control; (dose: 12.5 mg/kg/injection, schedule: Q01DX005 (ip), vehicle: saline with Tween-80) 92 % of control; (dose: 25.0 mg/kg/injection, schedule: Q01DX005 (ip), vehicle: saline with Tween-80) 100 % of control and 90 % of control; under setting [9], 104 % of control and 90 % of control; under setting [10], 92 % of control and 93 % of control.
Regarding `COc1ccc(-c2c3c(cc4cc5c(cc24)OCO5)C(=O)OC3)cc1OC`, the T/C was 110 % of control (dose: 12.0 mg/kg/injection, schedule: Q01DX009 (ip), vehicle: Klucel (hydroxypropylcellulose) (HPC)); 91 % of control (dose: 24.0 mg/kg/injection, schedule: Q01DX009 (ip), vehicle: Klucel (hydroxypropylcellulose) (HPC)); 86 % of control (dose: 48.0 mg/kg/injection, schedule: Q01DX009 (ip), vehicle: Klucel (hydroxypropylcellulose) (HPC)); 88 % of control (dose: 96.0 mg/kg/injection, schedule: Q01DX009 (ip), vehicle: Klucel (hydroxypropylcellulose) (HPC)).
Consider `O=C1CC(c2ccccc2)NN1` (configuration not stated), for which the T/C runs as follows: under setting [1], 103 % of control; under setting [2], 97 % of control.
With `CCCCCCCCCCC(O)Cn1ccnc1` (configuration not stated), the T/C (dose: 12.5 mg/kg/injection, schedule: Q01DX009 (ip), vehicle: saline with Tween-80) was 96 % of control; the T/C (dose: 25.0 mg/kg/injection, schedule: Q01DX009 (ip), vehicle: saline with Tween-80) was 100 % of control; the T/C under setting [17] is 95 % of control.
Regarding `CSCCC(N)[P+](=O)O` (configuration not stated), the T/C is, setting by setting: under setting [3], 99 % of control; under setting [4], 95 % of control; under setting [5], 99 % of control.
